Measurements as given in patent US7235577B1 (priority 2000, dated 2007).
Like-named read-outs stand apart in the source and are kept apart here.

What was measured:
CYP3A4 = CYP3A4 (Homo sapiens, UniProt P08684); test: in vitro; details: human
Experimental: The test substances shown in Table 8 were evaluated for their inhibitory effect on the catalytic activity of human cytochrome P450 enzyme. Cytochrome P450 3A4 (CYP3A4) is involved in many drug-drug interactions and in many other pathways in the body including the catabolism of steroids and xenobiotics. Inhibition of this enzyme was measured in 96 well plates with 7-benzyloxy-4-trifluoro-methylcoumarin (BFC) as the substrate and cDNA-derived enzymes in microsomes prepared from baculovirus-infected insect cells.
The inhibition study consisted of the determination of inhibition by the test substance on CYP3A4 catalytic activity. […] The compounds were prepared as 10 mM stock solutions in acetonitrile. Metabolism of the model substrate was assayed by the production of 7-hydroxy-4-trifluoromethylcoumarin metabolite. The metabolite was detected by fluorescence.
Table 10 below provides a list of the name of enzymes examined, the catalog number of the microsomes used as a source of the enzyme, the concentration of the model substrate used, the amount of enzyme used, the final buffer concentration, and the positive control compound.
Assays were conducted in 96 well microtiter plates. The BFC substrate was initially prepared in acetonitrile. […] Six wells were used for one test. […] For the positive controls, 12 wells in a row were used for one test. The positive control inhibitor/enzyme combination was examined in duplicate rows. Wells 1 to 8 contained serial 1:3 dilutions of the inhibitors. The highest inhibitor concentration were as described in the table above. Wells 9 and 10 contained no inhibitor and wells 11 and 12 were blanks for background fluorescence (stop solution added before the enzyme).
After buffer, cofactors and inhibitor addition, the plates were pre-warmed to 37° C. Incubations were initiated by the addition of pre-warmed enzyme and substrate. The final cofactor concentrations were 1.3 mM NADP, 3.3 mM glucose-6-phosphate and 0.4 U/ml glucose-6-phosphate dehydrogenase. The final incubation volume was 0.2 ml. Incubations were carried out for 30 minutes [CYP3A4 (BFC)] and stopped by the addition of 0.075 ml of 80% acetonitrile-20% 0.5M Tris. Fluorescence per well was measured using a BMG FLUOstar fluorescence plate reader. The BFC metabolite 7-hydroxy-4-trifluoromethyl-coumarin was measured using an excitation wavelength of 410 nm and emission wavelength of 538 nm.

human IKCa1 channel = human IKCa1 channel (Homo sapiens, UniProt O15554); test: cell-based; details: for IKCa1 inhibition compared with clotrimazole: refers to TABLE 8
human IKCa1 channel, sequence (O15554 whole entry): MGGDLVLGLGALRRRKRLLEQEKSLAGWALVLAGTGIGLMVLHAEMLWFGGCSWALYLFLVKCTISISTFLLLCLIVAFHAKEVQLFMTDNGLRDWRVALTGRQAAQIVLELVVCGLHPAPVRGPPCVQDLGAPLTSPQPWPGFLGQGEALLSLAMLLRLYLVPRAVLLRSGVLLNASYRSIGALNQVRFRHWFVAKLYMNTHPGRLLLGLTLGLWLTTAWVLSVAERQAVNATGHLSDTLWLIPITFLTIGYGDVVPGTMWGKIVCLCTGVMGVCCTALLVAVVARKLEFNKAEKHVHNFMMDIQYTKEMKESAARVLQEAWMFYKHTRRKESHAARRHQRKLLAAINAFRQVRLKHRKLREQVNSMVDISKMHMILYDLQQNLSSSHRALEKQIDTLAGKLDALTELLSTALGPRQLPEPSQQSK
Experimental: COS-7 cells, maintained in Dulbecco's modified Eagle's medium (DMEM) containing 10% heat-inactivated fetal calf serum, 4 mM L-glutamine and 1 mM Na^+ pyruvate, were transiently transfected with hlKCa1.
(§1) Electrophysiological experiments were carried out in the whole-cell configuration of the patch-clamp technique using an EPC-9 amplifier (HEKA Elektronik, Lambrecht Germany) interfaced to a computer running acquisition and analysis software (Pulse and Pulsfit; HEKA Elektronik). Pipettes were pulled from soft glass capillaries, coated with Sylgard (Dow-Corning, Midland, Mich.), and fire polished to resistances of 2.0–4.5 MΩ measured in the bath. COS-7 cells were trypsinized and plated on glass coverslips 3 h before measurement. […] To prevent activation of the native chloride channels in COS-7 cells an aspartate Ringer solution was used as an external solution (160 mM Na^+ aspartate, 4.5 mM KCl, 2 mM CaCl2, 1 mM MgCl2, 5 mM HEPES, adjusted to pH 7.4 with NaOH, with an osmolarity of 290–310 mosM). 200 ms voltage ramps from −120 mV to 40 mV every 10 s were used. The holding potential in all experiments was −80 mV. Series resistance compensation was not employed. The reduction of slope conductance at −80 mV was used to determine the Kd-value by fitting the values to the Hill equation with a Hill coefficient of unity.

[1] = Hydrolytic stability by HPLC; details: pH 5.0, 37° C.
Experimental: A Waters 590 liquid chromatograph with a Waters 746 integrator and a Waters 486 UVN is detector, and a 25 cm Lichrospher RP18 column (5-μM particle size) was used. The mobile phase consisted of K2HPO4 25 mM, KH2PO4 30 mM, methanol at 262:13:725. The chromatographic separation was performed at 20° C. with a flow rate of 1.0 ml/min, the absorbance of the elluent was monitored at 210 nm.
Hydrolysis profiles (10 μM compound with 20% acetonitrile) were carried out in Soerensen phosphate buffer (pH 7.4 and pH 5.0) in a total volume of 10 ml. 100 μl samples were collected 0, 1, 2, 3, 4, 5, 24, 48 and 72 hours after incubation, with shaking, in a waterbath at 37° C. and manually injected into the HPLC over Rheodyne 7125 system. For profiles at pH 1.0 artificial stomach fluid (DAB 9), containing 2 g NaCl, 3,2 g pepsin and 80 ml 1 M HCL in 1.0 L of water was used. After 0, 1 and 2 hours 400 μl of sample were collected and extracted three times with 500 μl of ethyl ether by vortexing. The combined extracts were than evaporated to dryness by passing nitrogen through the solution. The residue was than dissolved in 400 μl of mobile phase of which […] were injected in the HPLC.

COS-7 chloride channel = test: Selectivity patch clamp, native chloride channels in COS-7 cells; type: cell-based, African green monkey; details: native chloride channel of COS-7 cells
Experimental: as §1
Recordings from the Jurkat SKCa channel were made in K^+ aspartate Ringer (Na^+ was replaced by K^+) with the same internal pipette solution. […]

CYP3A4, sequence (P08684 whole entry): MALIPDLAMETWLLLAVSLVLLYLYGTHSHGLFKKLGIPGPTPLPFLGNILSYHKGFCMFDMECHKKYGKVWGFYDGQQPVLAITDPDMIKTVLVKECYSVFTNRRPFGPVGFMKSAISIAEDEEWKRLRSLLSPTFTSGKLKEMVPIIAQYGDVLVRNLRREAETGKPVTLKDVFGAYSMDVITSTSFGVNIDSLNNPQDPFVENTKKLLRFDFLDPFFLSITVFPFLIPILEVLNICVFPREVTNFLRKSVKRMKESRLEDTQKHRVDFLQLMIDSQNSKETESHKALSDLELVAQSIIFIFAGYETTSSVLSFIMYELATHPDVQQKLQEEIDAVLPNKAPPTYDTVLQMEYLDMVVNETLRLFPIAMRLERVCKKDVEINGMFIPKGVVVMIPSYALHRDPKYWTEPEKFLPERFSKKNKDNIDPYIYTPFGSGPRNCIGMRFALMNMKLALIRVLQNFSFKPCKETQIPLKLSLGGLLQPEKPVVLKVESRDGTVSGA

Structure (SMILES) | inhibition at 30 min, 10 μM (CYP3A4) | Kd (human IKCa1 channel) | further results
N#CC(c1ccccc1)(c1ccccc1)c1ccccc1Cl [Compound T39, 2-(2-Chlorophenyl)2,2-diphenylacetonitrile] | 10% | 60 nM | IKCa1 inhibition compared with clotrimazole (human IKCa1 channel): more potent inhibitors of IKCa1 channels than clotrimazole
CC(=O)NC(c1ccccc1)(c1ccccc1)c1ccccc1Cl [Compound T75, N-(2-chlorophenyl)diphenylmethyl acetamide] | -54% | 1200 nM | 
Clc1ccccc1C(Nc1nccs1)(c1ccccc1)c1ccccc1 [Compound T66, N-[(2-Chlorophenyl)diphenylmethyl]-N-(1,3-thiazol-2yl)amine] | 86.5% | 15000 nM | 
CCOC(=O)C(C(=O)OCC)C(c1ccccc1)(c1ccccc1)c1ccccc1 [Compound T74] | 4% |  | Kd (human IKCa1 channel; read-out: Kd for block of IKCa1, hIKCa1 in COS-7 cells, reduction of slope conductance at −80 mV, 1 μM free Ca++ in pipette): 600 nM
Clc1ccccc1C(Nc1ccncc1)(c1ccccc1)c1ccccc1 [Compound T67, N-[(2-Chlorophenyl)diphenylmethyl]-N-(4-pyridyl)amine] | 74% | 30000 nM | 
Clc1ccccc1C(c1ccccc1)(c1ccccc1)n1ccnc1 [Clotrimazole, reference compound] |  |  | inhibition at 30 min, 0.1 μM (CYP3A4): 99%; hydrolysis: % T3 formed ([1]; after 48 h): 22%; hydrolysis: % T3 formed ([1]; after 72 h): 35%; Block of COS-7 (Cl) (COS-7 chloride channel): no effect at 10 μM (n =

More lines, main results first:

inhibition at 30 min, 10 μM (CYP3A4) | Kd (human IKCa1 channel) | Structure (SMILES) | further results
-30.5% | 520 nM | OC(c1ccccc1)(c1ccccc1)c1ccccc1Cl [Compound T3, (2-Chlorophenyl)diphenyl methanol] | melting point: 91 °C
9% | 60 nM | N#CC(c1ccccc1)(c1ccccc1)c1ccccc1F [Compound T40, 2-(2-Fluorophenyl)2,2-diphenylacetonitrile] | melting point: 144 °C; IKCa1 inhibition compared with clotrimazole (human IKCa1 channel): more potent inhibitors of IKCa1 channels than clotrimazole
-26% | 5000 nM | FC(F)(F)c1ccccc1C(c1ccccc1)(c1ccccc1)n1cccn1 [Compound T58, 1-{Diphenyl[2-(trifluoromethyl)-phenyl]methyl}-1H-pyrazole] | 
